The values that follow come from patent US11371097B2, “Articles for diagnosis of liver fibrosis” (THE GOVERNMENT OF THE UNITED STATES, as represented by THE …, priority 2015, dated 2022).

One series relates to Timp1. Nature of the series: qPCR of liver RNA: Timp1. It counts as in vivo, Male Sprague-Dawley rats. To be noted: across dose groups, vs control. The protocol:
(§1) Working on dry ice, a portion (−10 mg) of flash-frozen liver was cut from each sample and transferred to a clean, labeled tube. Total RNA was then isolated using Qiagen's miRNeasy 96 kit (Qiagen, Valencia, Calif.) following manufacturer's instructions with a final elution volume of −150 μL (2×75 μL). The quality and quantity of RNA samples were evaluated with a 2100 Bioanalyzer (Agilent Technologies, Santa Clara, Calif.), using the Agilent RNA 6000 Nano Reagents and a multiwell NanoDrop 8000 spectrophotometer (Thermo Fisher Scientific, Waltham, Mass.).
(§2) Using 1 μg RNA input, cDNA was generated using a QuantiTect Reverse Transcription kit (Qiagen, Valencia, Calif.) following manufacturer's instructions. Applied Biosystems SYBR Green Master Mix was used in a 20 μL qPCR reaction with 2 μL of cDNA template and a 2.tM final concentration of each primer. A total of five genes were targeted (Gapdh, Actb, Timp1, Tgfbl, and Psma5), two of which served as the endogenous controls (Gapdh and Actb). An Applied Biosystems 7500 Real-Time PCR System (Applied Biosystems, Foster City, Calif.) was used for thermal cycling and fluorescence detection using the default settings for Quantitation-Comparative CT with SYBR® . . . Green Reagents which uses the following scheme: 95° C. for 10 minutes followed by 40 cycles of: 95° C. for 15 seconds, 60° C. for 1 minute, and a fluorescence signal read. […]

Series [1] concerns tissue, plasma, or serum protein abundance. Nature of the series: Global semiquantitative proteomics (iTRAQ mass spectrometry) of tissue, plasma, serum. The series is classed as in vivo, Rattus norvegicus. To be noted: for Differentially expressed proteins: global proteomics. An excerpt: Global semiquantitative proteomics analysis (iTRAQ analysis) identified protein products of a subset of the 24 genes differentially expressed in liver tissue specific for the fibrosis phenotype (Table 6). Six protein products were identified in plasma, four in the serum, and two in the liver tissue (Table 6). All protein products were identified in the contrast analysis as specific for the fibrosis phenotype. The direction of the changes in protein products matched the transcriptomics data with the exception of insulin-like growth factor binding protein complex acid labile subunit precursor. […] (Ippolito D L, et. al. Gene expression patterns associated with histopathology in toxic liver fibrosis. Tox Sci. 2015 Sep. 22. pii: kfv214)
(§3) Serum miRNA expression was measured by next-generation sequencing. Gene expression in the liver was determined by microarray, and global serum and liver protein expression was determined by semi-quantitative mass spectrometry. […] Transcriptomic analysis identified 506 differentially expressed genes in the liver. 13 miRNAs were predicted to target 100 unique differentially expressed genes in the liver. Global proteomics analysis identified 131 differentially expressed proteins in the liver and 53 in the serum. Of these, 7 miRNAs targeted 13 unique genes coding for differentially expressed liver tissue proteins and 3 miRNAs targeted 3 unique genes coding for serum proteins. These 16 differentially expressed miRNAs in the serum are predicted to target and potentially regulate gene expression contributing to the progression of toxic liver injury. (Fermenter M G et al. Serum miRNA as prognostic indicators of toxic liver injury. Submitted abstract in October 2015 for presentation at the Society of Toxicology in March 2016 (New Orleans, La.)).

In another series the test system is serum miRNA. The series can be described thus: Serum miRNA expression by next-generation sequencing. The series is classed as in vivo, rats. To be noted: FDR<0.05. The protocol: as §3
For a further series, the system named is Psma5. Nature of the series: qPCR of liver RNA: Psma5. It counts as in vivo, Male Sprague-Dawley rats. The note with it: high-dose group with vacuolation pathology; p<0.05. The protocol:
as §1, §2

For series [2], the system named is 67 genes on the fibrosis gene panel. To be noted: rat, in vivo.
[3] abbreviates: plasma, 4,4′-methylenedianiline/vehicle, Group 2.
[4] abbreviates: serum, 4,4′-methylenedianiline/vehicle, Group 2.
Where [5] appears, read: tissue, 4,4′-methylenedianiline/vehicle, Group 2.

“Also recorded” adds a separate entry of the source.

For `Nc1ccc(Cc2ccc(N)cc2)cc1` [4,4′-methylenedianiline], the “Timp1 gene expression by qPCR” value in the series on Timp1 is listed as “showed a dose-dependent increase; also recorded: dose-dependent increases in gene expression”. This molecule yielded a Differentially expressed proteins in series [1] (liver) of 131. Besides, in series [1] (setting [3]), the “Fold change alpha-2-macroglobulin precursor” value is reported as 2.2 Fold change, the “Fold change ceruloplasmin isoform 1 precursor” value stood at 2.5 Fold change, the “Fold change fibronectin precursor” value is reported as −1.3 Fold change and the “Fold change insulin-like growth factor-binding protein complex acid labile subunit precursor” value is −1.4 Fold change. Moreover, the “Fold change vitronectin precursor” value in series [1] (setting [3]) is −1.6 Fold change. This molecule registered a Differentially expressed proteins in series [1] (serum) of 53. In series [1] (setting [4]), the “Fold change alpha-2-macroglobulin precursor” value was 2.4 Fold change, the “Fold change ceruloplasmin isoform 1 precursor” value stood at 2.4 Fold change, the “Fold change complement C1q subcomponent subunit B precursor” value was 1.6 Fold change and the “Fold change vitronectin precursor” value is −1.1 Fold change. In addition, in series [1] (setting [5]), the “Fold change ceruloplasmin isoform 1 precursor” value was determined as 3.0 Fold change and the “Fold change fibronectin precursor” value is on record as 1.4 Fold change. Further, in the series with serum miRNA, the “Differentially expressed miRNA” value is recorded as 16, the “Downregulated miRNA” value is given as 4 and the “Upregulated miRNA” value stood at 12.

For `Brc1ccccc1` [bromobenzene], in the series with Psma5, the Psma5 expression was 2.2±0.8 fold vehicle control.

For `C[C@@H]1C[C@H]2[C@@H]3CCC4=CC(=O)C=C[C@]4(C)[C@@]3(F)[C@@H](O)C[C@]2(C)[C@@]1(O)C(=O)CO` [dexamethasone], in series [2], the “Panel genes downregulated (and upregulated in fibrogenic chemical-dose groups)” value is reported as 12 genes; the “Pcolce expression levels compared with fibrogenic compounds” value is “anti-correlated with corresponding gene expression levels induced by 4,4′-methylenedianiline and allyl alcohol”.
